One test deals with human V1a receptor (Homo sapiens (Human), UniProt P37288). Description: Cellular in vitro assay for determining vasopressin receptor activity (V1a, aequorin luminescence). The format is cell-based. The settings on record: for pIC50: CHO cell line transfected with human V1a receptor, [Arg8]-vasopressin at EC50 concentration, read-out: IC50 hV1a; for ratio IC50 hV2/hV1a: selectivity, IC50 hV2 divided by IC50 hV1a. How it is done:
(§1) B-1. Cellular In Vitro Assay for Determining Vasopressin Receptor Activity
(§2) The identification of agonists and antagonists of the V1a and V2 vasopressin receptors from humans, rats and dogs as well as the quantification of the activity of the compounds of the invention is carried out using recombinant cell lines. These cell lines originally derive from a hamster's ovary epithelial cell (Chinese Hamster Ovary, CHO K1, ATCC: American Type Culture Collection, Manassas, Va. 20108, USA). The test cell lines constitutively express the human, rat or dog V1a or V2 receptors. In case of the Gαq-coupled V1a receptors, cells are also stably transfected with a modified form of the calcium-sensitive photoproteins aequorin (human and rat V1a) or obe-lin (dog V1a), which, after reconstitution with the cofactor coelenterazine, emit light when there are increases in free calcium concentrations [Rizzuto R, Simpson A W, Brini M, Pozzan T, Nature 358, 325-327 (1992); Illarionov B A, Bondar V S, Illarionova V A, Vysotski E S, Gene 153 (2), 273-274 (1995)]. The resulting vasopressin receptor cells react to stimulation of the recombinantly expressed Via receptors by intracellular release of calcium ions, which can be quantified by the resulting photoprotein luminescence. The Gs-coupled V2 receptors are stably transfected into cell lines expressing the gene for firefly luciferase under control of a CRE-responsible promoter. Activation of V2 receptors induces the activation of the CRE-responsive promoter via cAMP increase, thereby inducing the expression of firefly luciferase. The light emitted by photoproteins of V1a cell lines as well as the light emitted by firefly luciferase of V2 cell lines corresponds to the activation or inhibition of the respective vasopressin receptor. The bioluminescence of the cell lines is detected using a suitable luminometer [Milligan G, Marshall F, Rees S, Trends in Pharmacological Sciences 17, 235-237 (1996)].
Vasopressin V1a Receptor Cell Lines:
On the day before the assay, the cells are plated out in culture medium (DMEM/F12, 2% FCS, 2 mM glutamine, 10 mM HEPES, 5 μg/ml coelenterazine) in 384-well microtiter plates and kept in a cell incubator (96% humidity, 5% v/v CO2, 37° C.). On the day of the assay, test compounds in various concentrations are placed for 10 minutes in the wells of the microtiter plate before the agonist [Arg^8]-vasopressin at EC50 concentration is added. The resulting light signal is measured immediately in a luminometer.
(§3) Table 1A below lists individual IC50 values for the compounds of the invention (including racemic mixtures as well as separated enantiomers) that were obtained from cell lines transfected with the human Via or V2 receptor: […]

The target in a further test is human V2 receptor (Homo sapiens (Human), UniProt P30518). Description: Cellular in vitro assay for determining vasopressin receptor activity (V2, CRE-luciferase). The format is cell-based. The settings on record: CHO cell line transfected with human V2 receptor; [Arg8]-vasopressin at EC50 concentration; read-out: IC50 hV2. As for the experimental part:
as §1, §2
Vasopressin V2 Receptor Cell Lines:
On the day before the assay, the cells are plated out in culture medium (DMEM/F12, 2% FCS, 2 mM glutamine, 10 mM HEPES) in 384-well microtiter plates and kept in a cell incubator (96% humidity, 5% v/v CO2, 37° C.). On the day of the assay, test compounds in various concentrations and the agonist [Arg^8]-vasopressin at EC50 concentration are added together to the wells, and plates are incubated for 3 hours in a cell incubator. Upon addition of the cell lysis reagent Triton™ and the substrate luciferin, luminescence of firefly luciferase is measured in a luminometer.
as §3

The text below walks through data of US11149023B2, “Substituted triazole derivatives and uses thereof” (Bayer Pharma Aktiengesellschaft, priority 2017, dated 2021).

pIC50: −log10 of the molar value.

Chain of human V2 receptor (P30518 whole entry): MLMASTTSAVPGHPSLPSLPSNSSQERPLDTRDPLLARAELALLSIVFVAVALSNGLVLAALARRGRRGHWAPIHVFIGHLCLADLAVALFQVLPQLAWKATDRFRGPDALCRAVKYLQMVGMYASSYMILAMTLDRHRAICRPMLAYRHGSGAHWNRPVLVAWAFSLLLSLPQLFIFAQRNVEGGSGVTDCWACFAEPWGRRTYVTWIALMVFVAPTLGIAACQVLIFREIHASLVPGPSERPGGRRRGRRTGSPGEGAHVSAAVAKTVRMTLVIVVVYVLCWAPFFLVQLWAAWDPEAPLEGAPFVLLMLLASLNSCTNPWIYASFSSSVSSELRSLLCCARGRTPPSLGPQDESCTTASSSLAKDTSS
Chain of human V1a receptor (P37288 whole entry): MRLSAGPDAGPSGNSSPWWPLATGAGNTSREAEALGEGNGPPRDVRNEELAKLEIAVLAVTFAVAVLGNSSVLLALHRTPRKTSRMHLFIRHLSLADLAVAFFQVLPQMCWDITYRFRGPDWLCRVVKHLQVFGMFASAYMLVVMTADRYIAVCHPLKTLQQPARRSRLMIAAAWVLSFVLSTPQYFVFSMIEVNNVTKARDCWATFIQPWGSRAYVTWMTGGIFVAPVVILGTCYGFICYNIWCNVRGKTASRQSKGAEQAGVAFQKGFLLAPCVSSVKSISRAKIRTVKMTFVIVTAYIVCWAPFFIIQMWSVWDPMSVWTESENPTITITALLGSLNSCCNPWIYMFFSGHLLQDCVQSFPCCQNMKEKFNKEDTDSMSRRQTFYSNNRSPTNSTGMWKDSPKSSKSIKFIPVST

`O=C(CCC(F)(F)F)NC(Cn1c(-c2ccc(Cl)cc2)nn(Cc2ncn(-c3ncccc3Cl)n2)c1=O)C(F)(F)F` (racemic) [Example 32, N-{3-[3-(4-Chlorophenyl)-1-{[1-(3-chloropyridin-2-yl)-1H-1,2,4-triazol-3-yl]methyl}-5-oxo-1,5-dihydro-4H-1,2,4-triazol-4-yl]-1,1,1-trifluoropropan-2-yl}-4,4,4-trifluorobutanamide]: on human V1a receptor, the pIC50 (usually −log10 of the IC50, conventionally taken in molar units) is 8.93 and the “ratio IC50 hV2/hV1a” value is 67.0. In addition, on human V2 receptor, the negative-log IC50 (pIC50) is 7.11.
In the same order, the values of `O=C(NC(Cn1c(-c2ccc(Cl)cc2)nn(Cc2ncn(-c3ncccc3Cl)n2)c1=O)C(F)(F)F)C1CS(=O)(=O)C1` (racemic) [Example 38, N-{3-[3-(4-Chlorophenyl)-1-{[1-(3-chloropyridin-2-yl)-1H-1,2,4-triazol-3-yl]methyl}-5-oxo-1,5-dihydro-4H-1,2,4-triazol-4-yl]-1,1,1-trifluoropropan-2-yl}thietane-3-carboxamide 1,1-dioxide] are 8.77, 28.2 and 7.32.
In the same order, the values of `O=C(NC(Cn1c(-c2ccc(Cl)cc2)nn(Cc2ncn(-c3ncccc3Cl)n2)c1=O)C(F)(F)F)C1(C(F)(F)F)CC1` (racemic) [Example 41, N-{3-[3-(4-Chlorophenyl)-1-{[1-(3-chloropyridin-2-yl)-1H-1,2,4-triazol-3-yl]methyl}-5-oxo-1,5-dihydro-4H-1,2,4-triazol-4-yl]-1,1,1-trifluoropropan-2-yl}-1-(trifluoromethyl)cyclopropane-carboxamide] are 8.82, 38.0 and 7.24.
On to `CS(=O)(=O)CC(=O)NC(Cn1c(-c2ccc(Cl)cc2)nn(Cc2ncn(-c3ncccc3Cl)n2)c1=O)C(F)(F)F` (racemic) [Example 44, N-{3-[3-(4-Chlorophenyl)-1-{[1-(3-chloropyridin-2-yl)-1H-1,2,4-triazol-3-yl]methyl}-5-oxo-1,5-dihydro-4H-1,2,4-triazol-4-yl]-1,1,1-trifluoropropan-2-yl}-2-(methylsulfonyl)acetamide], for which, on human V1a receptor, the pIC50 was 8.76 and the “ratio IC50 hV2/hV1a” value is 68.6. For the same compound, the pIC50 at human V2 receptor was 6.92.
Take `O=C(NC(Cn1c(-c2ccc(Cl)cc2)nn(Cc2ncn(-c3ncccc3Cl)n2)c1=O)C(F)(F)F)[C@@H]1C[C@H](F)CN1` (mixture of isomers) [Example 48, N-{3-[3-(4-Chlorophenyl)-1-{[1-(3-chloropyridin-2-yl)-1H-1,2,4-triazol-3-yl]methyl}-5-oxo-1,5-dihydro-4H-1,2,4-triazol-4-yl]-1,1,1-trifluoropropan-2-yl}-4-fluoro-prolinamide]: the results for the negative logarithm of the IC50 (pIC50) on human V1a receptor and at human V2 receptor were 8.27 and 6.52, respectively.
In the same order, the values of `O=C(NC(Cn1c(-c2ccc(Cl)cc2)nn(Cc2ncn(-c3ncccc3Cl)n2)c1=O)C(F)(F)F)[C@@H]1C[C@@H](F)CN1` (mixture of isomers) [Example 49, N-{3-[3-(4-Chlorophenyl)-1-{[1-(3-chloropyridin-2-yl)-1H-1,2,4-triazol-3-yl]methyl}-5-oxo-1,5-dihydro-4H-1,2,4-triazol-4-yl]-1,1,1-trifluoropropan-2-yl}-4-fluoro-prolinamide] are 8.47 and 6.42.
For the compound `O=C(NC(Cn1c(-c2ccc(Cl)cc2)nn(Cc2ncn(-c3ncccc3Cl)n2)c1=O)C(F)(F)F)c1ccc(Cl)s1` (racemic) [Example 52, 5-Chloro-N-{3-[3-(4-chlorophenyl)-1-{[1-(3-chloropyridin-2-yl)-1H-1,2,4-triazol-3-yl]methyl}-5-oxo-1,5-dihydro-4H-1,2,4-triazol-4-yl]-1,1,1-trifluoropropan-2-yl}thiophene-2-carboxamide], on human V1a receptor, the pIC50 was 8.55 and the “ratio IC50 hV2/hV1a” value worked out at 167.9. The pIC50 at human V2 receptor was 6.33.
In the same order, the values of `O=C(NC(Cn1c(-c2ccc(Cl)cc2)nn(Cc2ncn(-c3ncccc3C(F)(F)F)n2)c1=O)C(F)(F)F)C1(C(F)(F)F)CC1` (racemic) [Example 58, N-{3-[3-(4-Chlorophenyl)-5-oxo-1-({1-[3-(trifluoromethyl)pyridin-2-yl]-1H-1,2,4-triazol-3-yl}methyl)-1,5-dihydro-4H-1,2,4-triazol-4-yl]-1,1,1-trifluoropropan-2-yl}-1-(trifluoromethyl)cyclopropane-1-carboxamide] are 8.52, 40.2 and 6.92.
Taken in the same sequence, the figures for `O=C(CCC(F)(F)F)NC(Cn1c(-c2ccc(Cl)cc2)nn(Cc2ncn(-c3ncccc3C(F)(F)F)n2)c1=O)C(F)(F)F` (racemic) [Example 59, N-{3-[3-(4-Chlorophenyl)-5-oxo-1-({1-[3-(trifluoromethyl)pyridin-2-yl]-1H-1,2,4-triazol-3-yl}methyl)-1,5-dihydro-4H-1,2,4-triazol-4-yl]-1,1,1-trifluoropropan-2-yl}-4,4,4-trifluorobutanamide] were 8.72, 39.5 and 7.12.
In the same order, the values of `CC(F)(F)C(=O)NC(Cn1c(-c2ccc(Cl)cc2)nn(Cc2ncn(-c3ncccc3C(F)(F)F)n2)c1=O)C(F)(F)F` (racemic) [Example 60, N-{3-[3-(4-Chlorophenyl)-5-oxo-1-({1-[3-(trifluoromethyl)pyridin-2-yl]-1H-1,2,4-triazol-3-yl}methyl)-1,5-dihydro-4H-1,2,4-triazol-4-yl]-1,1,1-trifluoropropan-2-yl}-2,2-difluoropropanamide] are 7.73, 83.8 and 5.81.
`O=C(CF)NC(Cn1c(-c2ccc(Cl)cc2)nn(Cc2ncn(-c3ncccc3C(F)(F)F)n2)c1=O)C(F)(F)F` (racemic) [Example 61, N-{3-[3-(4-Chlorophenyl)-5-oxo-1-({1-[3-(trifluoromethyl)pyridin-2-yl]-1H-1,2,4-triazol-3-yl}methyl)-1,5-dihydro-4H-1,2,4-triazol-4-yl]-1,1,1-trifluoropropan-2-yl}-2-fluoroacetamide]: on human V1a receptor, the negative-log IC50 (pIC50) was 7.30 and the “ratio IC50 hV2/hV1a” value was 76.0. Also, at human V2 receptor, the negative-log IC50 (pIC50) is 5.42.
Taken in the same sequence, the figures for `O=C(NC(Cn1c(-c2ccc(Cl)cc2)nn(Cc2ncn(-c3ncccc3C(F)(F)F)n2)c1=O)C(F)(F)F)C1CS(=O)(=O)C1` (racemic) [Example 62, N-{3-[3-(4-Chlorophenyl)-5-oxo-1-({1-[3-(trifluoromethyl)pyridin-2-yl]-1H-1,2,4-triazol-3-yl}methyl)-1,5-dihydro-4H-1,2,4-triazol-4-yl]-1,1,1-trifluoropropan-2-yl}-1,1-dioxo-1lambda^6-thietane-3-carboxamide] were 8.80, 103.1 and 6.78.
On to `O=C(NC(Cn1c(-c2ccc(Cl)cc2)nn(Cc2ncn(-c3ncccc3C(F)(F)F)n2)c1=O)C(F)(F)F)C1CC(F)(F)C1` (racemic) [Example 63, N-{3-[3-(4-Chlorophenyl)-5-oxo-1-({1-[3-(trifluoromethyl)pyridin-2-yl]-1H-1,2,4-triazol-3-yl}methyl)-1,5-dihydro-4H-1,2,4-triazol-4-yl]-1,1,1-trifluoropropan-2-yl}-3,3-difluorocyclobutane-1-carboxamide], for which, on human V1a receptor, the pIC50 was 9.14 and the “ratio IC50 hV2/hV1a” value stood at 82.2. The pIC50 on human V2 receptor was 7.23.
